# Values quoted from earlier work, collected in US20070238698A1, “Method for manufacturing drinking water having chitosan” (Hsien-Chih Lin, priority 2006, published 2007).
# Key:
# Details in all cases: added to drinking water; experiments to animals
# [1] = test system: huge corrosion cell having ability of immunity
# enteric microflora = test system: enteric microflora
# inoculated tumors = test system: inoculated tumors
substance,measurement,setting,value
chitosan oligosaccharide,effect on huge corrosion cell having ability of immunity,[1],increase the huge corrosion cell having ability of immunity
same,effect on enteric microflora of animals,enteric microflora,improve the enteric microflora of animals
same,effect on inoculated tumors,inoculated tumors,reduced the inoculated tumors
